{"source": "paper PMC4839156", "about": "“A bioavailable cathepsin S nitrile inhibitor abrogates tumor development” (Molecular Cancer, 2016)", "type_in_all_cases": "biochemical", "key": {"cathepsin L": {"target": "T1, cathepsin L (Homo sapiens, UniProt P07711)", "T1 construct": "gene CTSL", "T1 sequence (P07711 114-288)": "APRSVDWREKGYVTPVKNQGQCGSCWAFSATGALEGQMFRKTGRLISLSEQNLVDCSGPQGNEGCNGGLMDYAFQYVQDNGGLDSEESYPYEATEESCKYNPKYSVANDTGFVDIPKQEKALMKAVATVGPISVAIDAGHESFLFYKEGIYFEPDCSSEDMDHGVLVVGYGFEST", "T1 sequence (P07711 292-333)": "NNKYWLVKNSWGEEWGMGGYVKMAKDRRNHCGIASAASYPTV", "assay": "recombinant enzyme, fluorogenic substrate Cbz-FR-AMC, Morrison plot Ki (limited activity)"}, "cathepsin K": {"target": "T2, cathepsin K (Homo sapiens, UniProt P43235)", "T2 construct": "gene CTSK", "T2 sequence (P43235 115-329)": "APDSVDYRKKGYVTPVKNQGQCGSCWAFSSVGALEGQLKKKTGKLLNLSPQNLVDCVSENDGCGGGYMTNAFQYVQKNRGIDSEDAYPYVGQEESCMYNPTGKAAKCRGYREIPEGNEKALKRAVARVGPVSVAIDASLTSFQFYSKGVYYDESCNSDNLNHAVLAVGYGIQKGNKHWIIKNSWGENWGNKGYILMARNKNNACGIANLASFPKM", "assay": "recombinant enzyme, fluorogenic substrate Cbz-FR-AMC, Morrison plot Ki"}, "cathepsin S": {"target": "T3, cathepsin S (Homo sapiens, UniProt P25774)", "T3 construct": "gene CTSS", "T3 sequence (P25774 115-331)": "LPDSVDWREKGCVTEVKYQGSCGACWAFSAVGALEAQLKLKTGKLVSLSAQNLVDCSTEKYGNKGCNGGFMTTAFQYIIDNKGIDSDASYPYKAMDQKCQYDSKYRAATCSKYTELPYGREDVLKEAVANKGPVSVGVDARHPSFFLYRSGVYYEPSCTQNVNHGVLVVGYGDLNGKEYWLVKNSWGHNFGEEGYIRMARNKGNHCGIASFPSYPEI", "assay": "recombinant enzyme, fluorogenic substrate Cbz-VVR-AMC, Morrison plot Ki"}, "cathepsin B": {"target": "T4, cathepsin B (Homo sapiens, UniProt P07858)", "T4 construct": "gene CTSB", "assay": "recombinant enzyme, fluorogenic substrate Cbz-RR-AMC, Morrison plot Ki"}, "cathepsin V": {"target": "T5, cathepsin V (Homo sapiens, UniProt O60911)", "T5 construct": "gene CTSV", "T5 sequence (O60911 114-334)": "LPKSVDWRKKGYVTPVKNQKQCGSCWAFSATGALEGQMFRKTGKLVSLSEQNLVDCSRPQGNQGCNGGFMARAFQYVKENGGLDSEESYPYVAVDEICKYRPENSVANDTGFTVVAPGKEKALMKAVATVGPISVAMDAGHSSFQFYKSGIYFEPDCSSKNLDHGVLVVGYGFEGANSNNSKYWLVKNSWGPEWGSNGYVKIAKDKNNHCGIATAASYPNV", "assay": "recombinant enzyme, fluorogenic substrate Cbz-FR-AMC, Morrison plot Ki"}}, "data": [{"smiles": "CS(=O)(=O)C[C@H](N[C@@H](c1ccc(F)cc1)C(F)(F)F)C(=O)NC1(C#N)CC1", "note": "[compound 6]", "values": [{"measurement": "Ki", "setting": "cathepsin L", "value": 7870, "unit": "nM"}, {"measurement": "Ki", "setting": "cathepsin K", "value": 155, "unit": "nM"}, {"measurement": "Ki", "setting": "cathepsin S", "value": 2.71, "unit": "nM"}, {"measurement": "Ki", "setting": "cathepsin B", "value": 1940, "unit": "nM"}, {"measurement": "Ki", "setting": "cathepsin V", "value": 784, "unit": "nM"}]}]}
